Measurements reported in patent US6342487B1, “Compositions containing at least one farnesyl transferase inhibitor and at least one topoisomerase inhibitor and compositions containing at least one farnesyl transferase inhibitor and at least one taxoid” (Aventis Pharma Rorer S.A., priority 1998, dated 2002).

Experiments:
human colon tumor HCT116 = experiment: Activity on the colon tumor HCT116 grafted by the subcutaneous route onto female nu/nu Swiss mice; assay type: in vivo
Description: This efficacy can be quantified, for example, by the net log 10 of the killed cells which is determined according to the following formula:
net log 10 of the killed cells=[T-C (days)−duration of the treatment (days)]/[3.32·Td]
in which T-C represents the delay in tumor growth which is the median time, in days, which the tumors of the treated group (T) and the tumors of the control group (C) took to reach a predetermined value (1 g for example) and Td represents the time, in days, necessary for the doubling of the volume of the tumor in the control animals [T. H. CORBETT et al., Cancer, 40, 2660-2680 (1977); F. M. SCHABEL et al., Cancer Drug Development, Part B, Methods in Cancer Research, 17, 3-51, New York, Academic Press Inc. (1979)].
A product is considered as very active if net log 10 of the killed cells is greater than or equal to 2.8. […] In such a case, the net log 10 of the killed cells has a positive value.
The combination, used at its own maximum tolerated dose, in which each of the constituents will be present at a dose which is generally lower than or equal to its maximum tolerated dose, will show a therapeutic synergy when the net log 10 of the killed cells is higher than the value of the net log 10 of the killed cells of the better constituent when it is administered alone.
The efficacy of the combinations on solid tumors can be determined experimentally in the following manner:
The animals subjected to the experiment, generally mice, are grafted bilaterally by the subcutaneous route with 30 to 60 mg of a tumor fragment on day 0. In the case of treatment of advanced tumors, the tumors are allowed to develop to the desired size, the animals having insufficiently developed tumors being eliminated. The selected animals are divided as a function of their tumor weight in a homogeneous manner between the treated and control groups, before the start of the treatments. Chemotherapy generally commences 12 to 14 days after the implantation of the tumor and the animals are observed every day. The different groups of animals are weighed every day until the maximum loss of weight is reached and then the groups are weighed at least once per week until the end of the test. The tumors are measured 2 to 3 times per week, with the aid of a slide calliper, according to two measurements in mm which are then converted into tumor weight according to the following formula: […]
The tumors are measured two or three times per week until the tumor reaches approximately 2 g or until the death of the animal if this occurs before the tumor reaches 2 g. An autopsy is carried out on the animals at the time of sacrifice.
The antitumor activity is determined as a function of the different parameters recorded.

[1] = Toxicity of the combination of product A with irinotecan; assay type: in vivo; settings: in combination with the topoisomerase inhibitor irinotecan
[2] = Table 1, tumor doubling time 3.4 days, doses 25 and 248 mg/kg per injection, days 14, 18, 22 (2x/d.) and 25-36 (2x/d.)
[3] = Table 1, tumor doubling time 3.4 days, doses 25 and 400 mg/kg per injection, days 14, 18, 22 (2x/d.) and 25-36 (2x/d.)
[4] = Table 1, tumor doubling time 3.4 days, doses 25 and 645 mg/kg per injection, days 14, 18, 22 (2x/d.) and 25-36 (2x/d.)
[5] = Table 1, tumor doubling time 3.4 days, doses 41 and 248 mg/kg per injection, days 14, 18, 22 (2x/d.) and 25-36 (2x/d.)
[6] = Table 1, tumor doubling time 3.4 days, doses 41 and 400 mg/kg per injection, days 14, 18, 22 (2x/d.) and 25-36 (2x/d.)
[7] = Table 1, tumor doubling time 3.4 days, doses 41 and 645 mg/kg per injection, days 14, 18, 22 (2x/d.) and 25-36 (2x/d.)
[8] = Table 2, tumor doubling time 4.5 days, 11.2 mg/kg per injection, days 14, 18, 22 (2x/d.)
[9] = Table 2, tumor doubling time 4.5 days, 18.7 mg/kg per injection, days 14, 18, 22 (2x/d.)
[10] = Table 2, tumor doubling time 4.5 days, 31.2 mg/kg per injection, days 14, 18, 22 (2x/d.)
[11] = Table 2, tumor doubling time 4.5 days, 52.0 mg/kg per injection, days 14, 18, 22 (2x/d.)
[12] = Table 1, tumor doubling time 3.4 days, 248 mg/kg per injection, days 14-25 (2x/d.)
[13] = Table 1, tumor doubling time 3.4 days, 400 mg/kg per injection, days 14-25 (2x/d.)
[14] = Table 1, tumor doubling time 3.4 days, 645 mg/kg per injection, days 14-25 (2x/d.)
[15] = Table 2, tumor doubling time 4.5 days, 645 mg/kg per injection, days 14-25 (2x/d.)

## CCc1c2c(nc3ccc(OC(=O)N4CCC(N5CCCCC5)CC4)cc13)-c1cc3c(c(=O)n1C2)COC(=O)[C@]3(O)CC [Irinotecan, irinotecan]
Human colon tumor HCT116; [2]
  (T-C)-(Duration of treatment): 19.1 days
  Long-term survivors on day 154: 1/6
  net log10 of killed cells: 1.7
Human colon tumor HCT116; [3]
  Long-term survivors on day 154: 2/7
  net log10 of killed cells: 3.3
Human colon tumor HCT116; [4]
  Long-term survivors on day 154: 3/8
  net log10 of killed cells: 3.6
Human colon tumor HCT116; [5]
  Long-term survivors on day 154: 4/8
  net log10 of killed cells: 3.3
Human colon tumor HCT116; [6]
  (T-C)-(Duration of treatment): 55.9 days
  Long-term survivors on day 154: 4/7
  net log10 of killed cells: 5.0
Human colon tumor HCT116; [7]
  Long-term survivors on day 154: 4/8
  net log10 of killed cells: 3.4
Human colon tumor HCT116; [8]
  (T-C)-(Duration of treatment): 8.3 days
  net log10 of killed cells: 0.6
Human colon tumor HCT116; [9]
  Long-term survivors on day 154: 0/5
  net log10 of killed cells: 1.1
Human colon tumor HCT116; [10]
  Long-term survivors on day 154: 0/5
  net log10 of killed cells: 1.0
Human colon tumor HCT116; [11]
  (T-C)-(Duration of treatment): 19.5 days
  Long-term survivors on day 154: 0/5
  net log10 of killed cells: 1.3
Human colon tumor HCT116; mouse, in vivo, 86 mg/kg
  (T-C)-(Duration of treatment): toxic

## C=C(C(=O)N1C[C@@H]2[C@]3(c4ccc(C)cc4)CC[C@@H](c4ccccc43)[C@]2(C(=O)O)C1)c1ccccc1OC (racemic) [A, (3aRS,4SR,9SR,9aRS)-4,9-ethano-2-[2-(2-methoxyphenyl)propenoyl]-9-(4-methylphenyl)-2,3,3a,4,9,9a-hexahydro-1H-benzo[f]isoindole-3a-carboxylic acid]
Human colon tumor HCT116; [12]
  (T-C)-(Duration of treatment): -10.9 days
  Long-term survivors on day 154: 0/6
  net log10 of killed cells: −1.0
Human colon tumor HCT116; [13]
  (T-C)-(Duration of treatment): -4.2 days
  Long-term survivors on day 154: 0/6
  net log10 of killed cells: −0.4
Human colon tumor HCT116; [14]
  (T-C)-(Duration of treatment): -2.7 days
  Long-term survivors on day 154: 0/6
  net log10 of killed cells: −0.2
Human colon tumor HCT116; [15]
  (T-C)-(Duration of treatment): 6.9 days
  Long-term survivors on day 154: 0/5
  net log10 of killed cells: 0.5
[1]
  toxicity in combination with irinotecan: does not increase the toxicity of irinotecan
